Results as given in PMC5438973 (Frontiers in Psychiatry, 2017).
“And” between values parts separate entries of the source, which are not always exact repeats. Equal values may be shown once.

How the values were obtained:
h5-HT4 = biological target: T1, h5-HT4 (Homo sapiens, UniProt Q13639); experiment: Radioligand binding, human cloned h5-HT4; details: agonist radioligand, n = 2, read-out: Affinity, Mean
T1 construct: expressed in transfected cells
Method: (§1) Binding affinities at the serotonin receptors were determined by standard radioligand-binding methods using human cloned receptors as reported in the literature ([14], [15]).

h5-HT1F = biological target: T2, h5-HT1F (Homo sapiens, UniProt P30939); experiment: Radioligand binding, human cloned h5-HT1F; details: agonist radioligand, read-out: Affinity, Mean
T2 construct: expressed in transfected cells
T2 sequence (P30939 whole entry): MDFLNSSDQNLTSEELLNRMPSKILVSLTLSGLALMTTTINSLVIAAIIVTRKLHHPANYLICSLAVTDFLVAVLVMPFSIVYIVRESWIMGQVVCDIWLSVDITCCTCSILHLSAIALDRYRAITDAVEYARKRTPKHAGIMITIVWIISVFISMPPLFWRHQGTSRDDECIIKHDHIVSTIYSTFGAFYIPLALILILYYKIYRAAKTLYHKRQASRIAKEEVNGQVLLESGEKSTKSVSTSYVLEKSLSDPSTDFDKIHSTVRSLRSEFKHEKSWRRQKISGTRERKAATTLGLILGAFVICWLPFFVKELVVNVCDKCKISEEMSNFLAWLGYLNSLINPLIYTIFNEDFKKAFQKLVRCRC
Method: as §1

Male, Wistar rats [1] = experiment: Isoproterenol-induced drinking; type: in vivo, rat; details: 5.6 mg/kg
Method: Male, Wistar rats (different from those rats used in the schedule-induced polydipsia studies) were used. They were 331 ± 11 g at the initiation of this study. Compound 1 (5.6 mg/kg, s.c.) was evaluated for its ability to reduce drinking. (±)-isoproterenol (30 μg/kg, s.c.) was given to induce drinking (n = 5–20 rat/group). Ten minutes after vehicle or (±)-isoproterenol injection, rats were given either vehicle or Compound 1 and a 60 min session began in which the rats in individual housing cages were given access to water 20 min after the second injection. The weight of the water bottle before and after the 60 min period was measured to the nearest 0.1 g. After the experiment, the animals were returned to their living cages with continuous access to food and water.

L-Verapamil site = experiment: CEREP broad receptor screening panel; type: binding; design: dose or concentration left out as unconfirmed; details: CPD 1 (table title), duplicate
Method: (§2) Additional selectivity assessment of CPD 1 was performed at CEREP. Methods are available for the multiple assays utilized at http://www.cerep.fr/cerep/users/pages/catalog/assay/catalog.asp. The specific ligand binding to the receptors is defined as the difference between the total binding and the non-specific binding determined in the presence of an excess of unlabeled ligand.

α1 = experiment: CEREP broad receptor screening panel; type: binding; design: dose or concentration left out as unconfirmed; details: CPD 1 (table title), duplicate
Method: as §2

h5-HT1E = biological target: T3, h5-HT1E (Homo sapiens, UniProt P28566); experiment: Radioligand binding, human cloned h5-HT1E; details: agonist radioligand, read-out: Affinity, Mean
T3 construct: expressed in transfected cells
T3 sequence (P28566 whole entry): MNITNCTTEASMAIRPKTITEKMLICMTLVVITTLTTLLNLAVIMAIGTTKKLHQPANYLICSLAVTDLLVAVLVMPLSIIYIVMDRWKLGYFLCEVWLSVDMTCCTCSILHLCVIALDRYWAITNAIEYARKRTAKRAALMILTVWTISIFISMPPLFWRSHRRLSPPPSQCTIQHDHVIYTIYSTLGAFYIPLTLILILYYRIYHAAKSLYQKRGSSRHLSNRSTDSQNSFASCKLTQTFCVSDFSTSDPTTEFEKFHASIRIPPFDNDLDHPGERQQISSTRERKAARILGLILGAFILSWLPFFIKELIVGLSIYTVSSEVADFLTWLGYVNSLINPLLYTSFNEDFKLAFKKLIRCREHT
Method: as §1

Male, NIH Swiss mice [2] = experiment: Rotarod performance; type: in vivo, mouse; details: mice, 10 mg/kg
Source text: Mice were not pretrained on this task.

h5-HT2C [3] = biological target: T4, h5-HT2C (Homo sapiens, UniProt P28335); experiment: GTP-γ-[35S] functional assay (SPA), AV12 cells; type: biochemical
T4 construct: expressed in transfected cells; host or cells: AV12 cells
T4 sequence (P28335 33-458): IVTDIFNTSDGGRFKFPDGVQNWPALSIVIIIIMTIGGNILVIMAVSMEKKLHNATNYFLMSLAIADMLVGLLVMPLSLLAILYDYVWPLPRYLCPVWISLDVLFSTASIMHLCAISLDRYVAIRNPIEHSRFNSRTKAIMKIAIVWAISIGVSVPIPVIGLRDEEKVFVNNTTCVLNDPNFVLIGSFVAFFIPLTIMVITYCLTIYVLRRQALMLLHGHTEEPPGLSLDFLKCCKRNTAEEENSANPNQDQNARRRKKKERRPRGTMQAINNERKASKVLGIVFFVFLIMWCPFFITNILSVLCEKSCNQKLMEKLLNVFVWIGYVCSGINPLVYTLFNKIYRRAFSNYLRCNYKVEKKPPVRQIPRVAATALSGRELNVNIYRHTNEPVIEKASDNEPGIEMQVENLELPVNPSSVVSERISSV
Source text: (§3) 5-HT2 receptors are functionally coupled to specific G-proteins. Agonist activation of 5-HT2 G-protein coupled receptors results in the release of GDP from alpha-subunit (G alpha q or G alpha i) of the G-protein and the subsequent binding of GTP. The binding of the stable analog GTP-g-[^35S] is an indicator of receptor activation. Human cloned 5-HT2A, −2B, and −2C receptors were expressed in AV12 cells. GTP-g-[^35S] nucleotide exchange scintillation proximity assay (SPA) was used to measure binding as previously described ([14]).

h5-HT2A [4] = biological target: T5, h5-HT2A (Homo sapiens, UniProt P28223); experiment: GTP-γ-[35S] functional assay (SPA), AV12 cells; type: biochemical
T5 construct: expressed in transfected cells; host or cells: AV12 cells
T5 sequence (P28223 whole entry): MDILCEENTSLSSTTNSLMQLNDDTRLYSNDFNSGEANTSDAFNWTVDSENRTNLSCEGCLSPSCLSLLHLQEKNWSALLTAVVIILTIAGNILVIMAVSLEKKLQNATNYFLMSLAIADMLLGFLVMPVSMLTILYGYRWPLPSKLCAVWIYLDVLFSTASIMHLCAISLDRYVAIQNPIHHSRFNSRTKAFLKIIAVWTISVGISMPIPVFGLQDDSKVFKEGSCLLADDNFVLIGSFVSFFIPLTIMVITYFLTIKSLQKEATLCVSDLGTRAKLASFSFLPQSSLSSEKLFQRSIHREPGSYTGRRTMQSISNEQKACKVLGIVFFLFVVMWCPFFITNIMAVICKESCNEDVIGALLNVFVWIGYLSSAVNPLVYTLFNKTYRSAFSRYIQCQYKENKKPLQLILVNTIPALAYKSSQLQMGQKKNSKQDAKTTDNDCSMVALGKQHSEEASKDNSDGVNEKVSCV
Source text: as §3

h5-HT2B = biological target: T6, h5-HT2B (Homo sapiens, UniProt P41595); experiment: GTP-γ-[35S] functional assay (SPA), AV12 cells; type: biochemical
T6 construct: expressed in transfected cells; host or cells: AV12 cells
T6 sequence (P41595 whole entry): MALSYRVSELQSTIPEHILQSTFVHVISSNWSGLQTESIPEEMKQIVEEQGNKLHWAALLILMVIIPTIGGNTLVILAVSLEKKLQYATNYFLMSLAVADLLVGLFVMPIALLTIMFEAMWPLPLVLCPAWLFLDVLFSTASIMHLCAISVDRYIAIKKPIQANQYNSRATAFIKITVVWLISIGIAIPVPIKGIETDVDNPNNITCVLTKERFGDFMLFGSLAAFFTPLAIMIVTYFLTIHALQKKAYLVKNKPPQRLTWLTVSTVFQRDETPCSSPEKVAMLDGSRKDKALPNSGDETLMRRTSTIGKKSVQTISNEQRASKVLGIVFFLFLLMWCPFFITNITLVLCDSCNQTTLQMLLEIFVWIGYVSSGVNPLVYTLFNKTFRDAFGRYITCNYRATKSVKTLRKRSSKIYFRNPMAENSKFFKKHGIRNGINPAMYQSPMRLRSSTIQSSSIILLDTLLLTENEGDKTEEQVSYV
Source text: as §3

Male, Wistar rats [5] = experiment: Schedule-induced polydipsia; type: in vivo, rat; details: for Decrease of excessive water consumption: sc
Source text: Rats were used in these experiments as they have been utilized for such studies in the past with great success in generating significant polydipsia ([16]). Male, Wistar rats were singly housed, and maintained at approximately 85% of their free-feeding weights with free access to water. Twelve adult male, Wistar rats (Harlan Industries, Indianapolis, IN, USA) were used. They were allowed to acclimate to our vivarium for at least 3 days prior to testing. They were 2 months old at the start of the experiments that lasted approximately 6–8 months and were without explicit experimental experience prior to this study. The rats were singly housed, and maintained at approximately 86–91% of their free-feeding weights with post session supplemental feeding of Lab Diet #5001 for rodents (PMI Nutrition International Inc., St. Louis, MO, USA). Body weights were corrected for the normal growth curve of Wistar rats such that actual body weight of each rat increased over the experimental time frame. Water was available continuously in the individual home cages. Rats were inspected daily 7 days/week by experimenters and veterinary staff.
The experiments were conducted using operant behavior test chambers ENV-007 (Med Associates Inc., Georgia, VT, USA), 30.5 cm × 24.1 cm × 29.2 cm. The test chambers were contained within light and sound attenuating shells. A food trough was mounted 2 cm off the grid floor on the centerline. Two response levers were centered 8 cm off the centerline and 7 cm off the grid floor. Three lights were located above each response lever at 15 cm off the grid floor. All events were controlled and lever-press data were recorded by a Compaq computer running MED-PC Version IV (Med Associates Inc., Georgia, VT, USA). The water bottle located within each chamber was weighed before and after experimental sessions.
Experimental sessions lasted 90 min. Test compounds or drug vehicle were administered on Tuesdays and Fridays, given the stability of performance (within 15% variation of the individual animal). Non-injection, control performances were on Thursdays. […] Dose-effect curves and drug interaction data were created by repeated testing in groups of five to eight rats. Test compounds were administered as described in figure legends. The effects of the compound are expressed as a percent of control for each individual animal. Results were analyzed by ANOVA followed by Dunnett’s multiple comparison (p < 0.05).
Thus, in keeping with the guidelines of animal care and use followed here, we utilized the minimum number of animals required for signal detection.

h5-HT1B = biological target: T7, h5-HT1B (Homo sapiens, UniProt P28222); experiment: Radioligand binding, human cloned h5-HT1B; details: agonist radioligand, read-out: Affinity, Mean
T7 construct: expressed in transfected cells
T7 sequence (P28222 whole entry): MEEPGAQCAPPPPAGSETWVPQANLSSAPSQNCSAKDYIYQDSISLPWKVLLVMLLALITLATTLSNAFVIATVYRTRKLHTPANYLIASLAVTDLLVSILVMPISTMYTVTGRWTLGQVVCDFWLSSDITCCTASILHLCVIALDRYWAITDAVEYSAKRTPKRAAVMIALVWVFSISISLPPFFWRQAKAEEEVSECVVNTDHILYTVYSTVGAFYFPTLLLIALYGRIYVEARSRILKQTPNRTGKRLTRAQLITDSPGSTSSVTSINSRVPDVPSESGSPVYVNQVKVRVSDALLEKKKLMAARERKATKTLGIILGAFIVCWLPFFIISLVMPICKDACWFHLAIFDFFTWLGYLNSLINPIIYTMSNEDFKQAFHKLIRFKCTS
Method: as §1

Male, NIH Swiss mice [6] = experiment: Nestlet-shredding; details: 8/dose group
h5-HT2A [7] = biological target: T5, h5-HT2A; experiment: Radioligand binding, human cloned h5-HT2A
Method: as §1

h5-HT6 = biological target: T8, h5-HT6 (Homo sapiens, UniProt P50406); experiment: Radioligand binding, human cloned h5-HT6; details: agonist radioligand, read-out: Affinity, Mean
T8 construct: expressed in transfected cells
T8 sequence (P50406 whole entry): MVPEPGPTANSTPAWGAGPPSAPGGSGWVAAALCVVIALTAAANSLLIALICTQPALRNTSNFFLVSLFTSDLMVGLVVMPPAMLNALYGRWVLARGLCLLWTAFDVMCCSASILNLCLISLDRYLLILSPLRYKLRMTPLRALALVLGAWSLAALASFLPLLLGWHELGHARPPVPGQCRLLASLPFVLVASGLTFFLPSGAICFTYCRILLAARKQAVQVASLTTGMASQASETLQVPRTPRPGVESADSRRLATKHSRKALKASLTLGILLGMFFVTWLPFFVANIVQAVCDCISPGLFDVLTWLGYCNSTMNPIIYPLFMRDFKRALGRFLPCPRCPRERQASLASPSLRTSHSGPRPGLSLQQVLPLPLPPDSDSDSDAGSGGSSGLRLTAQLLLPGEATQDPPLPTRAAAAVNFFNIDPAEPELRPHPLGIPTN
Method: as §1

h5-HT2C [8] = biological target: T4, h5-HT2C; experiment: Radioligand binding, human cloned h5-HT2C; details: agonist radioligand, read-out: Affinity, Mean
Method: as §1

[9] = GTPgs functional assay, human recombinant cell line
[10] = 10 mg/kg, five consecutive days

T1 sequence (Q13639 whole entry): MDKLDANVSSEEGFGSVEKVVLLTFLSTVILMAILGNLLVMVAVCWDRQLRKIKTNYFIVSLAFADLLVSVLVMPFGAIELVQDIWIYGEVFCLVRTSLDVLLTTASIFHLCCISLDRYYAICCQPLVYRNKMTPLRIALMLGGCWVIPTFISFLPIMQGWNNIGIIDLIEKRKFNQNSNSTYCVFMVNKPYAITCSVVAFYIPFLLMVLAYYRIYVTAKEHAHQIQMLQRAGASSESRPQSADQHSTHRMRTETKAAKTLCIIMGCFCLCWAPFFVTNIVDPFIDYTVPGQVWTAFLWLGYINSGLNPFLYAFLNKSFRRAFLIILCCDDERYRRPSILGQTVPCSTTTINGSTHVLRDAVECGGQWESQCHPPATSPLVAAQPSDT

Structure (SMILES): C[C@H]1CN(c2ccc(C(F)(F)F)c3ccoc23)CCN1 [CPD 1, (3S)-3-methyl-1-[4-(trifluoromethyl)-7-benzofuranyl]-piperazine]
- Ki (h5-HT4): 977 nM
- Ki (h5-HT1F): 540 nM
- Reduction of isoproterenol-induced drinking (Male, Wistar rats [1]; s.c.): 77%
- Effect on normal drinking (Male, Wistar rats [1]; without isoproterenol): did not significantly affect
- % Inhibition (L-Verapamil site): 59%
- % Inhibition (α1): 82%
- Ki (h5-HT1E): 1040 nM
- Rotarod falls and failures (Male, NIH Swiss mice [2]; after 5 days of dosing, 12 mice): neither falls nor failures
- Rotarod failures (mice failing / tested) (Male, NIH Swiss mice [2]; day 1): 0/12
- Rotarod falls (mice falling / tested) (Male, NIH Swiss mice [2]; day 1): 2/12
- Functional activity (kind of agonism) (h5-HT2C [3]; 5-HT2C): full agonist
- EC50 (h5-HT2C [3]; [9]): 8.1 ± 0.5 nM
- Emax (h5-HT2C [3]; [9]): 110 ± 1%
- Functional activity (kind of agonism) (h5-HT2A [4]; 5-HT2A): partial agonist
- EC50 (h5-HT2A [4]; [9]): 269 ± 19 nM
- Emax (h5-HT2A [4]; [9]): 53 ± 2%
- Functional activity (kind of agonism) (h5-HT2B; 5-HT2B): partial agonist
- EC50 (h5-HT2B; [9]): 97 ± 23 nM
- Emax (h5-HT2B; [9]): 51%
- Attenuation (tolerance) of the effect over 5 days (Male, Wistar rats [5]; [10]): not a significant attenuation
- Effect on excessive water consumption over 5 days of dosing (Male, Wistar rats [5]; [10]): significantly decreased
- Decrease of excessive water consumption (Male, Wistar rats [5]; CPD 1 5.6 mg/kg sc with MDL100907 0.1 mg/kg, 30 min prior): 65%
- Decrease of excessive water consumption (Male, Wistar rats [5]; CPD 1 5.6 mg/kg, 20 min prior): 64%
- Dose at which statistically significant reduction of excessive drinking was detected (Male, Wistar rats [5]; Dunnett p < 0.05): ≥ 3 mg/kg
- Effect on excessive drinking / amount of water consumed (Male, Wistar rats [5]; given alone, acute dosing): dose-dependently suppressed
- Effect on number of responses emitted (lever pressing for food) (Male, Wistar rats [5]; given alone, acute dosing): without affecting response output
- Ki (h5-HT1B): 1110 nM
- Nestlet-shredding, minimal effective dose (Male, NIH Swiss mice [6]): 3 milligrams per kilogram
- Ki (h5-HT2A [7]; agonist radioligand, h5-HT2A, read-out: Affinity, Mean): 47.2 nM
- selectivity for h5-HT2C over h5-HT2A receptors (h5-HT2A [7]; binding affinities): 22 fold
- Ki (h5-HT6): 212 nM
- Ki (h5-HT2C [8]): 2 nM and 2.11 nM
